Reference: patent US8552050B2, “Activators of pyruvate kinase M2 and methods of treating disease” (Beth Israel Deaconess Medical Center, priority 2007, dated 2013)
Each block holds one compound with its values, some of them ahead of it. Square brackets hold non-standard residues; d marks the D form. Ends that are not written are not given here. pY = N[C@@H](Cc1ccc(OP(=O)(O)O)cc1)C(=O)O

Tests used:
[1] = target: T1, PKM2 (Homo sapiens, UniProt P14618); test: PKM2 inhibition assay, LDH-coupled, FBP added in excess; format: biochemical; conditions: read-out: Inhibition of PKM2 Activity
Description: (§1) For the inhibition assays, a candidate compound (2 μl 100×) was added into a well. In a control well, 2 μl of DMSO was added in place of the candidate compound. […] The mixture incubated at room temperature for 30 minutes. Immediately prior to measurement readings, 10 μl PEP (0.5 mM) and 2 μl FBP/H2O (0.5 μM) were added to each well. The FBP was added in excess.
Target sequence in this assay (P14618 whole entry): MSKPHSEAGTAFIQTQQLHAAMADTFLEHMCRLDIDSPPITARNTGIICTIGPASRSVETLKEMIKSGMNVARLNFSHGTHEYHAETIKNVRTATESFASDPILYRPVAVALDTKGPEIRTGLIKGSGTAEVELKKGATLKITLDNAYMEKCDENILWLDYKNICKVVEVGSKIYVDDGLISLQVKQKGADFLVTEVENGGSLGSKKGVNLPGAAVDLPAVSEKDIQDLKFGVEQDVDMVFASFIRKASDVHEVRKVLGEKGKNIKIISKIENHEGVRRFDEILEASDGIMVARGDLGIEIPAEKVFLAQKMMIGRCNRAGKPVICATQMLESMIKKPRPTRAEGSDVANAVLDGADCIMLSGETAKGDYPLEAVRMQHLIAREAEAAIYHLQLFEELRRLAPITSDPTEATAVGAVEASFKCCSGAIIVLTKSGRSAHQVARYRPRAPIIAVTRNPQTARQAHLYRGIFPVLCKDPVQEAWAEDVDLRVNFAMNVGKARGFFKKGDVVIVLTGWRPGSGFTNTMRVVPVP

[2] = target: T1, PKM2; test: FBP competition for binding of recombinant PKM2 to phosphoTyr peptide affinity matrix; design: His6 (N); made in house; host or cells: E. coli BL21(DE3)pLysS; conditions: FIG. 2b
Description: To determine if the FBP binding pocket on PKM2 coordinates phosphoTyr peptide binding, it was assessed whether FBP could compete for binding of PKM2 to a phosphoTyr peptide library column. Recombinant protein was synthesized by cloning human PKM2 into a pET28a vector (Novagen) at NdeI and BamHI sites and PKM2 was expressed as a N-terminal His6 tag fusion protein. The protein was expressed and purified with a standard protocol. Briefly, pET28a-PKM2 was transformed into BL2 I (DE3)pLysS cells and grown to an OD600 of 0.8 and induced with 0.5 mM IPTG for seven hours at room temperature. Cells were lysed using lysozyme in lysis buffer (50 mM Tris, pH 8.0, 10 mM MgCl2, 200 mM NaCl, 100 mM KCl, 20% glycerol, 10 mM imidazole, 1 mM PMSF). The cell lysate was cleared by centrifugation. PKM2 was purified by batch binding to Ni—NTA resin (Qiagen). The resin was then washed with lysis buffer containing 30 mM imidazole for 200 column volumes, and His6-tag-PKM2 was eluted with 250 mM imidazole. The protein was dialyzed overnight at 4° C. to remove the imidazole.
Recombinant PKM2 was incubated with increasing amounts of FBP and then flowed over the phosphoTyr peptide affinity matrix. 20 μM FBP was able to compete for binding of recombinant PKM2 to phosphoTyr peptides (FIG. 2b). […]
Target sequence in this assay (P14618 whole entry): as above

[3] = target: T1, PKM2; test: 14C-FBP retention on protein after dialysis, scintillation counting; format: binding; design: His6 (N); made in house; host or cells: E. coli BL21(DE3)pLysS
Description: (§2) However, FBP concentrations following protein purification would be orders of magnitude lower than this value. […] The PKM1, PKM2, and no-protein control were incubated with ^14C-FBP for 30 minutes at room temperature and then […] dialyzed against >2 L of buffer using 10,000 MWCO dialysis cassettes (Pierce) for at least 7 hours. After dialysis, samples were recovered and the amount of ^14C-FBP retained in each dialysis cassette was determined by scintillation counting. […] Upon further analysis, it was estimated that ^14C FBP is retained at roughly half a mole per mole on the PKM2 protein.
Target sequence in this assay (P14618 whole entry): as above

[4] = target: T1, PKM2; conditions: Yamada and Noguchi 1999; cited from earlier work
Target sequence in this assay (P14618 whole entry, species assumed): as the sequence (P14618 whole entry) above

[5] = target: T1, PKM2; test: PKM2 activator assay, LDH-coupled, no FBP added; format: biochemical
Description: as §1, with “the activator” for “the inhibition”, “for 5” for “for 30”, “mM)” for “mM) and 2 μl FBP/H2O (0.5 μM)”, “well. No” for “well. The”, “was added.” for “was added in excess.”
Target sequence in this assay (P14618 whole entry): as above

[6] = target: T2, recombinant PKM1 (Homo sapiens, UniProt P14618); test: 14C-FBP retention on protein after dialysis, scintillation counting; format: binding; conditions: ~10 μM 14C-FBP, 1 μM protein
T2 construct: made in house
T2 sequence (P14618 1-531 isoform P14618-2, species assumed): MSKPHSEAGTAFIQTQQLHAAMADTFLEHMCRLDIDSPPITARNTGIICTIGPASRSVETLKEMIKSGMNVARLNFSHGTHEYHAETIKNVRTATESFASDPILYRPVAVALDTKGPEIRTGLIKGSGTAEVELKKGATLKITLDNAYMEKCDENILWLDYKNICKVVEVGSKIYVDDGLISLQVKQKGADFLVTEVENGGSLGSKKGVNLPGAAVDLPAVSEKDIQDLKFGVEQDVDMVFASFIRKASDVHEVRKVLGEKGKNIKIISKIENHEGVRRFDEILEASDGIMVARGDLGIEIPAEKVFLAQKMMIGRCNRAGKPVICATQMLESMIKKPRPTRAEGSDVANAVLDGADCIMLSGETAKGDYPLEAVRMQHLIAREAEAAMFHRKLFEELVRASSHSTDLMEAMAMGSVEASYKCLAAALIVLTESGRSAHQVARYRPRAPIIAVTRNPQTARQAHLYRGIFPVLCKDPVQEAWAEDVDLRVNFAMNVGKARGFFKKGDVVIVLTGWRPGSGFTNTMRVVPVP
Description: as §2

[7] = tested on: M1 and M2 rescue cells; test: Proliferation of M1 and M2 rescue cells with oligomycin; format: cell-based, human; conditions: subsaturating oligomycin (125 nM); M1 vs M2 rescue cells
Description: To examine whether PKM2 expression enhances tumor cell growth under lowered oxygen and glucose conditions, proliferation rates of the M1 and M2 rescue cells (M2 knockdown cells expressing mM1 or mM2) were measured in physiologic glucose levels and hypoxic oxygen. […] The percent decrease in oxygen consumption following addition of subsaturating amounts of oligomycin, a specific inhibitor of mitochondrial ATP synthase, was the same in both the M1 and M2 cells.
5×10^4 cells were seeded in triplicate in 6-well plates and accurate cell counts were obtained every 24 hours using a Coulter particle analyzer for a 3-5 day period. Time zero was taken 16 hours post-seeding. Cells grown in low oxygen were incubated in a sealed hypoxia chamber set to 0.5% oxygen. Cells grown in the presence of oligomycin were treated with 125 nM oligomycin at time zero.

[8] = target: T1, PKM2; test: Release of 14C-FBP from FBP-loaded recombinant PKM2 after peptide exposure and dialysis; format: binding; design: His6 (N); made in house; host or cells: E. coli BL21(DE3)pLysS; conditions: 14C counts retained after dialysis; FIG. 4e
Description: To examine the effect of phosphoTyr peptide binding on FBP-bound PKM2, a peptide-binding motif for PKM2 was obtained using traditional peptide library screening. Both the phosphorylated (P-M2tide) and unphosphorylated (NP-M2tide) versions of the optimal peptide were synthesized: P-M2tide (GGAVDDDpYAQFANGG SEQ ID NO:1) and NP-M2tide (GGAVDDDYAQFANGG SEQ ID NO:2) (FIG. 5). The FBP-loaded recombinant PKM2 was incubated with P-M2tide or NP-M2tide, the unbound FBP and peptide were dialyzed away, and the counts retained on the PKM2 were measured.
Target sequence in this assay (P14618 whole entry): as the sequence (P14618 whole entry) above

[9] = target: T1, PKM2; test: Recombinant PKM2 activity with P-M2tide / NP-M2tide, LDH-coupled assay; format: biochemical; design: His6 (N); made in house; host or cells: E. coli BL21(DE3)pLysS; conditions: dose-dependent; FIG. 6a
Excerpt: Multiple phosphoTyr peptides comprising in vivo phosphorylation sites previously identified on metabolic proteins (Villen et al., Proc. Natl. Acad. Sci. USA 104: 1488-93, 2007) were synthesized. Several of these phosphoTyr peptides, as well as multiple phosphoTyr peptides designed after known tyrosine kinase motifs, were also shown to inhibit PKM2 activity (FIG. 6b).
Target sequence in this assay (P14618 whole entry): as above

[10] = target: T3, Flag-tagged PKM2 (Mus musculus, UniProt P52480); test: 3H bound to immunoprecipitated Flag-tagged PKM2 in cells cultured with 3H-glucose; format: cell-based; conditions: 15-minute treatment with pervanadate
T3 construct: expressed in transfected cells
T3 sequence (P52480 whole entry): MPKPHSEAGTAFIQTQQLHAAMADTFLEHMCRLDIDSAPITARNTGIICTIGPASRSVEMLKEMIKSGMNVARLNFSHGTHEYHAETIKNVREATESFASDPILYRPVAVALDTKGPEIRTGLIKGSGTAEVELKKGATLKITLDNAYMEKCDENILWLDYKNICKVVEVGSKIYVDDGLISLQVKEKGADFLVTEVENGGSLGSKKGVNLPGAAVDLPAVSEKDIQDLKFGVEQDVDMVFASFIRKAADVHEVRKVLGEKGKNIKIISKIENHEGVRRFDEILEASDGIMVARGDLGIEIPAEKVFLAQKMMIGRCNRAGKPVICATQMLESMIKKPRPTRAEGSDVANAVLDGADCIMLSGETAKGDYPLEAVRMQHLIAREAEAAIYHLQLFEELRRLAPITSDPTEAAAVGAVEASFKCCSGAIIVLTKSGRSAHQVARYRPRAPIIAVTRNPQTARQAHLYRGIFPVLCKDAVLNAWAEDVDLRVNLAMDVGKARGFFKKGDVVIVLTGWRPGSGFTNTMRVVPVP
Description: Next, the ability of phosphoTyr protein binding to catalyze the release of FBP from PKM2 in vivo was tested. To address this, cells were cultured overnight with ^3H-glucose that can be metabolized to ^3H-FBP. Flag-tagged PKM2 was immunoprecipitated and the amount of ^3H bound to PKM2 with and without pervanadate-treatment was determined by scintillation counting.

[11] = tested on: PKM2-expressing cells; test: Cellular oxygen consumption after acute pervanadate stimulation; format: cell-based
Description: (§3) Consistent with this model, a 25% increase in the incorporation of metabolites from ^14C-glucose into lipids upon pervanadate-treatment of PKM2-expressing cells was observed. […] A similar increase in the incorporation of ^14C-glucose metabolites into lipids was observed upon pervanadate stimulation of 293 cells.
Cellular oxygen consumption rates were measured using a water-jacketed (37° C.) anaerobic chamber fitted with a polarographic oxygen electrode as described previously (Vander Heiden et al, Mol Cell Biol 21: 5899-912, 2001). The electrode was calibrated with 150 mM NaCl equilibrated to room air at 37° C. (corresponding to 199 nmol O2/ml).

[12] = tested on: PKM2-expressing cells; test: Incorporation of metabolites from 14C-glucose into lipids; format: cell-based
Excerpt: as §3

[13] = tested on: pyruvate kinase; conditions: pervanadate stimulation
Description: Pyruvate kinase activity was measured according to published methods by a continuous assay coupled to lactate dehydrogenase (LDH). The change in absorbance at 340 nm due to oxidation of NADH was measured using a Victor^3 1420 Multilabel Counter spectrophotometer (PerkinElmer, Inc.). Kinetic assays for activity determinations contained recombinant PK (20-100 ng) or cell lysate (1-2 μg), Tris (pH 7.5) (50 mM), KCl (100 mM), MgCl2 (5 mM), ADP (0.6 mM), PEP (0.5 mM), NADH (180 pM), FBP (10 pM), and LDH (8 units).

Compound: CC[C@H]1/C=C/C=C/C[C@@H](C)[C@H](O)[C@@](C)(O)C(=O)[C@@H](C)[C@H](O)[C@@H](C)C(=O)[C@@H](C)[C@H](O)[C@@H](C)/C=C/C(=O)O[C@@H]2[C@H](C)[C@H](CC1)O[C@]1(CC[C@H](C)[C@H](C[C@@H](C)O)O1)[C@H]2C [oligomycin]
effect on proliferation rate [7]: affected the proliferation rate of the M1 cells significantly more than the M2 cells

Compound: GGAVDDDYAQFANGG [NP-M2tide]
FBP retained on / released from PKM2 [8]: significant amount of FBP remaining bound to PKM2

Compound: pervanadate
reduction in 3H that immunoprecipitated with PKM2 [10]: 30±13% | decrease in oxygen consumption ([11]; M2KE-expressing cells): 15±4% | decrease in oxygen consumption ([11]; PKM2-expressing cells): 36±1% | increase in the incorporation of metabolites from 14C-glucose into lipids ([12]; PKM2-expressing cells): 25% | 14C incorporation into lipids ([12]; cells expressing the KE point mutant of PKM2): no significant increase | decrease in total pyruvate kinase activity ([13]; 293, A549 and H1299 cells, FIG. 6c): 20-30% | pyruvate kinase activity in M1-, M2-, M2KE-, L-expressing knockdown cells ([13]; H1299 knockdown/rescue cells, FIG. 6g): specific inhibition of pyruvate kinase activity only in the wild-type M2-expressing cells

Continued, in another order:

inhibition at 10 µM ([1]; 0.01 mM compound): 21% | inhibition at 100 µM ([1]; 0.1 mM compound): 36% | inhibition at 1000 µM ([1]; 1 mM compound): 55%
Compound: Cc1ccc(C)n1-c1ccc(O)c(C(=O)O)c1

FBP concentration able to compete for binding of recombinant PKM2 to phosphoTyr peptides [2]: 20 µM | 14C FBP retained on the PKM2 protein ([3]; estimated upon further analysis): roughly half | more 14C counts than PKM1 sample and no-protein control ([3]; ~10 μM 14C-FBP, 1 μM protein, after dialysis): 52±5% | % Activation of PKM2 by FBP ([5]; 0.1 μM FBP): 62% | % Activation of PKM2 by FBP ([5]; 0.3 μM FBP): 89% | % Activation of PKM2 by FBP ([5]; 1 μM FBP): 114%
Compound: O=C(COP(=O)(O)O)[C@@H](O)[C@H](O)[C@H](O)COP(=O)(O)O [FBP, fructose-1,6-bisphosphate]
Ka values for FBP binding to PKM2 [4]: micromolar range | 14C counts retained in PKM1 sample [6]: same amount of ^14C counts as the no-protein control sample

inhibition of PKM2 activity [9]: 20-30% | FBP retained on / released from PKM2 [8]: release of the majority of the FBP
Compound: GGAVDDDpYAQFANGG (GGAVDDD[pY]AQFANGG) [P-M2tide]
